This note sets out measurements from ChEMBL document CHEMBL4118166, “Design, synthesis and evaluation of potent and selective inhibitors of mono-(ADP-ribosyl)transferases PARP10 and PARP14” (Bioorg Med Chem Lett, 2018).

Molecules are shown by their SMILES. In brackets after ≈: the same amount, converted by molar mass.

The target in data set [1] is T1, Protein mono-ADP-ribosyltransferase PARP15 (Homo sapiens, UniProt Q460N3).
T1 sequence (Q460N3 whole entry): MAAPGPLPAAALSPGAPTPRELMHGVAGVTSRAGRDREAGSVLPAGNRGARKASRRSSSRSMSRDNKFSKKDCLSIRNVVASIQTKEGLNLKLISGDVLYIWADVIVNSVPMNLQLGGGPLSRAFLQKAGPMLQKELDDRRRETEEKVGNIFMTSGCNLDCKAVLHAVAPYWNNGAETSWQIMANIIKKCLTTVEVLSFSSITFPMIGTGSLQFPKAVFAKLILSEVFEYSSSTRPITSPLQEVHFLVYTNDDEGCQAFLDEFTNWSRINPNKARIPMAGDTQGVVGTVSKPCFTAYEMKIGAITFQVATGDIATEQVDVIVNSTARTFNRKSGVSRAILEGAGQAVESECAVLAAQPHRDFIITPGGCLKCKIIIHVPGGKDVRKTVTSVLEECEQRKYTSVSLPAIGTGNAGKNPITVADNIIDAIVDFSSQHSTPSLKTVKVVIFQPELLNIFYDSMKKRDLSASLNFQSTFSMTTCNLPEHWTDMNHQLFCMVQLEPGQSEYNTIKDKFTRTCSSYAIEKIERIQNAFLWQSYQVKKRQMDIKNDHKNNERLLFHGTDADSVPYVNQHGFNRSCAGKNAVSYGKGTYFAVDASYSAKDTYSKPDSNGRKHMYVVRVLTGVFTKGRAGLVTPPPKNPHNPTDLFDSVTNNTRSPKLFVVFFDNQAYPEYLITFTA
As to the kind of experiment: Inhibition of full length recombinant His6-tagged PARP15 catalytic domain (unknown origin) expressed in Escherichia coli BL21(DE3) by fluorescence based assay.

Data set [2] in a line: Thermodynamic solubility of the compound in phosphate buffer at pH 7.4 after 24 hrs by HPLC/UV based shake flask method. The class given is physicochemical. Particulars: read-out: Therm_solubility.
Data set [3] is described as follows: Metabolic stability in mouse liver microsomes assessed as compound remaining level at 5 uM after 2 hrs in presence of G-6-P, G-6-PDH, MgCl2 and NADP+ by LC-MS/MS analysis. Type of data set: ADME, microsome. Particulars: read-out: Stability. In general terms: Liver microsomes are vesicles of endoplasmic reticulum, rich in cytochrome P450 enzymes.
Data set [4] in a line: Metabolic stability in mouse liver microsomes compound remaining level at 5 uM in absence of co-factors after 2 hrs by LC-MS/MS analysis. The class given is ADME, microsome. The note with it: read-out: Stability.
Data set [5] deals with T2, Protein mono-ADP-ribosyltransferase PARP10 (Homo sapiens, UniProt Q53GL7).
T2 sequence (Q53GL7 whole entry): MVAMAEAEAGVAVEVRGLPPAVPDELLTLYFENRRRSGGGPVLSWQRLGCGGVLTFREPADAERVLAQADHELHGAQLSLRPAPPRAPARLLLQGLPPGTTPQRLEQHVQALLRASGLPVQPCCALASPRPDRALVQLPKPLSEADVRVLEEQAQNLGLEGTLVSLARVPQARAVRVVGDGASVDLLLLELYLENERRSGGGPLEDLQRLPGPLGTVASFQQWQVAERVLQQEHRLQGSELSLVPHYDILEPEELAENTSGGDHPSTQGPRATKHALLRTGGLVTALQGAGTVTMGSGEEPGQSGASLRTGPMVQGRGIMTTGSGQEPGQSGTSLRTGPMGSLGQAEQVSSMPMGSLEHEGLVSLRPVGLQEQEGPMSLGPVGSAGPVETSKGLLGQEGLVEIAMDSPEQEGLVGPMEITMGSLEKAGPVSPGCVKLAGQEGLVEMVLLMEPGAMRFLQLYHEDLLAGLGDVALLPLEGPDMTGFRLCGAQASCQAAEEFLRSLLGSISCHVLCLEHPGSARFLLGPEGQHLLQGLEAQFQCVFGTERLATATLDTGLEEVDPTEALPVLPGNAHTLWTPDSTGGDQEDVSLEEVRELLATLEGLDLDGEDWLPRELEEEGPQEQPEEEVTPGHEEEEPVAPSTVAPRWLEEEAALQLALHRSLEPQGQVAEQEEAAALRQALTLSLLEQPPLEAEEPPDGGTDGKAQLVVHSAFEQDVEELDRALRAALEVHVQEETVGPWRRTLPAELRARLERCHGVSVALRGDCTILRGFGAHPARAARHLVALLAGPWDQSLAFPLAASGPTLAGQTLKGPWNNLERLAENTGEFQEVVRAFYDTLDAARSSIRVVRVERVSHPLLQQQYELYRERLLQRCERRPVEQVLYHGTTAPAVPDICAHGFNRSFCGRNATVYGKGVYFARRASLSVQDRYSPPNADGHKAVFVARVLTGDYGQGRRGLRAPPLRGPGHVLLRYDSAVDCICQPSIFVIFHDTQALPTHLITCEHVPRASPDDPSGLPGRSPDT
Description: Inhibition of full length recombinant His6-tagged human PARP10 expressed in Escherichia coli BL21(DE3) preincubated for 15 mins followed by biotinylated NAD+ addition by chemiluminescence assay.

Data set [6] addresses Protein mono-ADP-ribosyltransferase PARP14 (Homo sapiens) (UniProt Q460N5). Description: Inhibition of full length recombinant His6-tagged human PARP14 WWA/catalytic domain expressed in Escherichia coli BL21(DE3) at 5 uM preincubated for 15 mins followed by biotinylated NAD+ addition by chemiluminescence assay relative to control.

Chain of Protein mono-ADP-ribosyltransferase PARP14 (Homo sapiens) (Q460N5 whole entry, the tested form may be a part): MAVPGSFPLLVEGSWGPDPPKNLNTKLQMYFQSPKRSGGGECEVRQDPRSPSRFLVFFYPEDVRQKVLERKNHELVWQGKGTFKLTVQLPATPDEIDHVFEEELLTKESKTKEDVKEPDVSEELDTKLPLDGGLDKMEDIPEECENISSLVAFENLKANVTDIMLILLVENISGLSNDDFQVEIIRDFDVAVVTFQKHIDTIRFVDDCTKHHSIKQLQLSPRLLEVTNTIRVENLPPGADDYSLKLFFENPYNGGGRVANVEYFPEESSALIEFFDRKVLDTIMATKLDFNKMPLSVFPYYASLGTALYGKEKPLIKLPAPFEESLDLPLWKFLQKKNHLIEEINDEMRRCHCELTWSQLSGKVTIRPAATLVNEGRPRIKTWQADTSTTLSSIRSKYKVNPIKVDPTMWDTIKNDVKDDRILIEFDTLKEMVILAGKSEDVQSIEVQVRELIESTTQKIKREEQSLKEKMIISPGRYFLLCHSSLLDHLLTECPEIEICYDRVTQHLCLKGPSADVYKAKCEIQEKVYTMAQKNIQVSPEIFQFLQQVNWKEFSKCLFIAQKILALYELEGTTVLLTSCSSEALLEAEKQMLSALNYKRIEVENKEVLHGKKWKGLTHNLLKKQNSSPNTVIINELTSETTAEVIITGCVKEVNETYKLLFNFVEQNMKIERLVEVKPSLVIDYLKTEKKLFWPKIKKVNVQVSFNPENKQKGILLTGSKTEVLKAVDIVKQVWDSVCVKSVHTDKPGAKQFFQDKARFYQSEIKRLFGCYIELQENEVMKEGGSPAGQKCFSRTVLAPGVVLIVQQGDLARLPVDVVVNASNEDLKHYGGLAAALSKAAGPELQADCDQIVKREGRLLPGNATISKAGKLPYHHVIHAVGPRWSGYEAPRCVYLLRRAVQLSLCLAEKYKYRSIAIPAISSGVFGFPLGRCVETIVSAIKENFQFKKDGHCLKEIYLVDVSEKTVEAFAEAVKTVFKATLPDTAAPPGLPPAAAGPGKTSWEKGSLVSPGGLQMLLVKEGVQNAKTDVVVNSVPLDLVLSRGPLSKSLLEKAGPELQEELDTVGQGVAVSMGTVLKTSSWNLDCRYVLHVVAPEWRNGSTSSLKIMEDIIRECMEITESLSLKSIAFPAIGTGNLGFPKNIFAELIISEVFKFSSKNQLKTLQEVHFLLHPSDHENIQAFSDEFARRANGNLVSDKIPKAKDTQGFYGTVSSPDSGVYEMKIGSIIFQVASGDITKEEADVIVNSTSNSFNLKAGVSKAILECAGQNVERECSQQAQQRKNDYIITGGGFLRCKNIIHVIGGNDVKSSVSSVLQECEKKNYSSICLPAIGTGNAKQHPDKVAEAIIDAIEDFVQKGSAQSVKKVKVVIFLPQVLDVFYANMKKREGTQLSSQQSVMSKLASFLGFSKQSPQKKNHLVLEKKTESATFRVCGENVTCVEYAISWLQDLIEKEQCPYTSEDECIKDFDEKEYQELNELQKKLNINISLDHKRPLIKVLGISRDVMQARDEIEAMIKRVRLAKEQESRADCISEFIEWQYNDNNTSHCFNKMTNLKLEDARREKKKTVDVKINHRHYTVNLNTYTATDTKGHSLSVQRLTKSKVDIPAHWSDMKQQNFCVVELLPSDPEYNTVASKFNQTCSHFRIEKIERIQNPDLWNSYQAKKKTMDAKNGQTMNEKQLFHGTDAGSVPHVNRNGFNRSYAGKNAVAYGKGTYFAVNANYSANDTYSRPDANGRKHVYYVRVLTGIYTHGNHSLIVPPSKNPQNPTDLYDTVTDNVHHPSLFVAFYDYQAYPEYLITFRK

For `NC(=O)c1ccc(Oc2ccc(C(N)=O)cc2)cc1`, the IC50 in data set [1] amounted to 4170 nM.

Regarding `NC(=O)c1ccc(Oc2cccc(C(=O)N3CCN(c4ccc(F)cc4)CC3)c2)cc1`, the solubility thermodynamic at 24 h in data set [2] is 60 µM (≈ 25.2 µg/mL). Also, the remaining at 2 h, 5 µM in data set [3] stood at 39%; in data set [4] it was 88.1%.

With `NC(=O)c1ccc(Oc2ccc(C(=O)N3CCC(c4cccc(F)c4)CC3)cc2)cc1`, the IC50 in data set [5] came to 1220 nM.

For the compound `NC(=O)c1ccc(Oc2cccc(C(=O)N3CCC(c4ccc(F)cc4)CC3)c2)cc1`, the solubility thermodynamic at 24 h in data set [2] is 42 µM (≈ 17.6 µg/mL). Besides, the remaining at 2 h, 5 µM in data set [3] worked out at 16.4%; in data set [4] it was 91.8%.

With `CCOC(=O)C1CCN(C(=O)c2cccc(Oc3ccc(C(N)=O)cc3)c2)CC1`, the inhibition in data set [6] is 51%. Moreover, in data set [5], the IC50 is 1060 nM.

On to `NC(=O)c1ccc(Oc2cccc(C(=O)N3CCC(O)(c4ccccc4)CC3)c2)cc1`, for which the IC50 in data set [5] amounted to 1500 nM.

With `NC(=O)c1ccc(Oc2cccc(C(=O)N3CCC(c4ccccc4F)CC3)c2)cc1`, the IC50 in data set [5] was determined as 470 nM.

For `NC(=O)c1ccc(Oc2ccc(C(=O)N3CCC(c4ccc(F)cc4)CC3)cc2)cc1`, in data set [5], the IC50 was found to be 1650 nM.

`NC(=O)c1ccc(Oc2cccc(C(=O)N3CCC(O)(c4ccc(F)cc4)CC3)c2)cc1`: the solubility thermodynamic at 24 h in data set [2] is 242 µM (≈ 105 µg/mL). The remaining at 2 h, 5 µM came to 45.3% in data set [3] and 100% in data set [4].

As to `NC(=O)c1ccc(Oc2cccc(C(N)=O)c2)cc1`, the IC50 in data set [5] was 510 nM.

The IC50 is the concentration needed to halve the response being measured. What is called inhibition is how much of the control response was suppressed.
